According to US20250230193A1, “CYCLIC COMPOUND HAVING SELECTIVE KRAS INHIBITORY EFFECT ON HRAS AND NRAS” (CHUGAI SEIYAKU KABUSHIKI KAISHA, priority 2022, published 2025):
Where a SMILES comes first, the peptide text is derived from it. Bridges are numbered along the chain shown (N, C = ends). [ ]: non-standard residue; d: D form. The star is where a group is joined. hPhe(3,5-F2-4-CF3) = N[C@@H](CCc1cc(F)c(C(F)(F)F)c(F)c1)C(=O)O; hPhe(3-Cl-4-CF3) = N[C@@H](CCc1ccc(C(F)(F)F)c(Cl)c1)C(=O)O; NPrPhe(4-CF3) = CCCN[C@@H](Cc1ccc(C(F)(F)F)cc1)C(=O)O; NMeGly(cPent) = CN[C@H](C(=O)O)C1CCCC1; Pro(4,4-F2) = O=C(O)[C@@H]1CC(F)(F)CN1; NMeD = CN[C@@H](CC(=O)O)C(=O)O; NMeL = CN[C@@H](CC(C)C)C(=O)O; αMeS = C[C@](N)(CO)C(=O)O; Morpholide = C1CN(*)CCO1; Ac5c = NC1(C(=O)O)CCCC1; Aze = O=C(O)[C@@H]1CCN1; Sar = CNCC(=O)O

Experiments:
[1] = target: GDP-bound HRAS wild-type protein (Homo sapiens, UniProt P01112); experiment: Binding to HRAS by surface plasmon resonance (SPR), Single Cycle Kinetics; details: SPR; for HRAS/KRAS (ratio of KD value with respect to HRAS to KD value with respect to KRAS): GDP-bound HRAS wild-type vs GDP-bound KRAS wild-type
Chain of GDP-bound HRAS wild-type protein (P01112 whole entry): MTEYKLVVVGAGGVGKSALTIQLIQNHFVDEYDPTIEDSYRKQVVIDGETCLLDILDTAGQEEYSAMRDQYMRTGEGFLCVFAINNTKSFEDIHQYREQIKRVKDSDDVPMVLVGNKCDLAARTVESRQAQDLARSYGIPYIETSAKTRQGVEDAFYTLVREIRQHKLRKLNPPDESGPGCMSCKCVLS

[2] = target: GDP-bound NRAS wild-type protein (Homo sapiens, UniProt P01111); experiment: Binding to NRAS by surface plasmon resonance (SPR), Single Cycle Kinetics; details: SPR; for NRAS/KRAS (ratio of KD value with respect to NRAS to KD value with respect to KRAS): GDP-bound NRAS wild-type vs GDP-bound KRAS wild-type
Chain of GDP-bound NRAS wild-type protein (P01111 whole entry): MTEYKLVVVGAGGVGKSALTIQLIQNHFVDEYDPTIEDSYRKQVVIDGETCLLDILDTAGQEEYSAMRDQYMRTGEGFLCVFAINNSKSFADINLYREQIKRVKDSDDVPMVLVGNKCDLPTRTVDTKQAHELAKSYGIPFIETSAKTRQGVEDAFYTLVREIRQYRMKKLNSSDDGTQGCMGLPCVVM

Compound: CCO[C@@H]1C[C@H]2C(=O)NC3(CCC3)C(=O)N(C)[C@@H](C3CCCC3)C(=O)N(C)[C@H](C(=O)N(C)C)CC(=O)N(C)[C@@H](CC3CC3)C(=O)N[C@@H]([C@@H](C)CC)C(=O)N(C)CC(=O)N(C)[C@H]3CCCCN(C3=O)[C@@H](Cc3ccc(C(F)(F)F)cc3)C(=O)N(C)CC(=O)N[C@@H](CCc3cc(F)c(C(F)(F)F)c(F)c3)C(=O)N2C1 [PP0697]
- HRAS/KRAS (ratio of KD value with respect to GDP-bound HRAS wild-type protein to KD value with respect to KRAS) ([1]; KD ratio HRAS/KRAS): C (A compound having a KD ratio of 0.1 or more and less than 3 is denoted as C)
- NRAS/KRAS (ratio of KD value with respect to GDP-bound NRAS wild-type protein to KD value with respect to KRAS) ([2]; KD ratio NRAS/KRAS): C (A compound having a KD ratio of 0.1 or more and less than 3 is denoted as C)

Compound: CCC[C@H]1C(=O)N[C@@H]([C@@H](C)CC)C(=O)N2CCC[C@H]2C(=O)N(C)[C@H]2C/C=C\CCN(C2=O)[C@@H](Cc2ccc(C(F)(F)F)cc2)C(=O)N(C)CC(=O)N[C@@H](CCc2ccc(C(F)(F)F)c(OC)c2)C(=O)N2C[C@H](OCC)C[C@H]2C(=O)N(C)C2(CCC2)C(=O)N(C)[C@@H](C(CC)CC)C(=O)N(C)[C@H](C(=O)N(C)C)CC(=O)N1C [PP2317]
- HRAS/KRAS (ratio of KD value with respect to HRAS to KD value with respect to KRAS) [1]: A (a compound having 10 or more and less than 20 is denoted as A)
- NRAS/KRAS (ratio of KD value with respect to NRAS to KD value with respect to KRAS) [2]: A (a compound having 10 or more and less than 20 is denoted as A)

Compound: CCCN1C(=O)[C@@H]2CCN2C(=O)CN(C)C(=O)[C@H]([C@@H](C)CC)NC(=O)[C@H](CC(C)C)N(C)C(=O)C[C@@H](C(=O)N2CCOCC2)N(C)C(=O)[C@H](C2CCCC2)N(C)C(=O)[C@](C)(COC)NC(=O)[C@@H]2CCCN2C(=O)[C@H](CCc2cc(F)c(C(F)(F)F)c(F)c2)NC(=O)CN(C)C(=O)[C@@H]1Cc1ccc(C(F)(F)F)cc1 [PP0798] ([NMeL]I[Sar][Aze][NPrPhe(4-CF3)][Sar][hPhe(3,5-F2-4-CF3)]P[αMeS](Me)[NMeGly(cPent)][NMeD]-Morpholide; lactam N-11)
- HRAS/KRAS (ratio of KD value with respect to GDP-bound HRAS wild-type protein to KD value with respect to KRAS) ([1]; KD ratio HRAS/KRAS): B (a compound having 3 or more and less than 10 is denoted as B)
- NRAS/KRAS (ratio of KD value with respect to GDP-bound NRAS wild-type protein to KD value with respect to KRAS) ([2]; KD ratio NRAS/KRAS): C (A compound having a KD ratio of 0.1 or more and less than 3 is denoted as C)

Compound: CCCN1C(=O)[C@@H]2CCN2C(=O)CN(C)C(=O)[C@H]([C@@H](C)CC)NC(=O)[C@H](CC(C)C)N(C)C(=O)C[C@@H](C(=O)N2CCOCC2)NC(=O)[C@H](C2CCCC2)N(C)C(=O)C2(CCCC2)NC(=O)[C@@H]2CC(F)(F)CN2C(=O)[C@H](CCc2ccc(C(F)(F)F)c(Cl)c2)NC(=O)CN(C)C(=O)[C@@H]1Cc1ccc(C(F)(F)F)cc1 [PP0351] ([NMeL]I[Sar][Aze][NPrPhe(4-CF3)][Sar][hPhe(3-Cl-4-CF3)][Pro(4,4-F2)][Ac5c][NMeGly(cPent)]D-Morpholide; lactam N-11)
- HRAS/KRAS (ratio of KD for GDP-bound HRAS wild-type to KD for KRAS) ([1]; KD ratio HRAS/KRAS): B (a compound having 3 or more and less than 10 is denoted as B)
- NRAS/KRAS (ratio of KD for GDP-bound NRAS wild-type to KD for KRAS) ([2]; KD ratio NRAS/KRAS): C (A compound having a KD ratio of 0.1 or more and less than 3 is denoted as C)

Compound: CCC[C@H]1C(=O)N[C@@H]([C@@H](C)CC)C(=O)N(C)CC(=O)N(C)[C@H]2C/C=C\CCN(C2=O)[C@@H](Cc2ccc(C)cc2)C(=O)N(C)CC(=O)N[C@@H](CCc2cc(F)c(C(F)(F)F)c(F)c2)C(=O)N2C[C@H](OCC)C[C@H]2C(=O)NC2(CC(C)(C)C2)C(=O)N(C)[C@@H](CC(F)(F)F)C(=O)N(C)[C@H](C(=O)N(C)C)CC(=O)N1C [PP2993]
- HRAS/KRAS (ratio of KD value with respect to GDP-bound HRAS wild-type protein to KD value with respect to KRAS) ([1]; KD ratio HRAS/KRAS, GDP-bound wild-type proteins): A (a compound having 10 or more and less than 20 is denoted as A)
- NRAS/KRAS (ratio of KD value with respect to GDP-bound NRAS wild-type protein to KD value with respect to KRAS) ([2]; KD ratio NRAS/KRAS, GDP-bound wild-type proteins): A (a compound having 10 or more and less than 20 is denoted as A)

Compound: CC[C@H](C)[C@@H]1NC(=O)[C@@H](CC(C)C)N(C)C(=O)C[C@@H](C(=O)N2CCOCC2)N(C)C(=O)[C@H](C2CCCC2)N(C)C(=O)C2(CCCC2)NC(=O)[C@@H]2CCCN2C(=O)[C@H](CCc2cc(F)c(C(F)(F)F)c(F)c2)NC(=O)CN(C)C(=O)[C@H](Cc2ccc(C(F)(F)F)cc2)N2CCCC[C@@H](C2=O)N(C)C(=O)CN(C)C1=O [PP0591]
- HRAS/KRAS (ratio of KD value with respect to GDP-bound HRAS wild-type protein to KD value with respect to KRAS) ([1]; KD ratio HRAS/KRAS): B (a compound having 3 or more and less than 10 is denoted as B)
- NRAS/KRAS (ratio of KD value with respect to GDP-bound NRAS wild-type protein to KD value with respect to KRAS) ([2]; KD ratio NRAS/KRAS): B (a compound having 3 or more and less than 10 is denoted as B)

Compound: CCCN(C)C(=O)[C@@H]1CC(=O)N(C)[C@@H](C2CC2)C(=O)N[C@@H]([C@@H](C)CC)C(=O)N(C)CC(=O)N(C)[C@H]2C/C=C\CCN(C2=O)[C@@H](Cc2ccc(C(F)(F)F)cc2)C(=O)N(C)CC(=O)N[C@@H](CCc2cc(F)c(C(F)(F)F)c(F)c2)C(=O)N2C[C@@H](C)C[C@H]2C(=O)NC2(CCC2)C(=O)N(C)[C@@H](C2CCCC2)C(=O)N1C [PP2081]
- HRAS/KRAS (ratio of KD value with respect to HRAS to KD value with respect to KRAS) [1]: A (a compound having 10 or more and less than 20 is denoted as A)
- NRAS/KRAS (ratio of KD value with respect to NRAS to KD value with respect to KRAS) [2]: A (a compound having 10 or more and less than 20 is denoted as A)
